Measured values from patent EP2161024A1, “Combination product for the treatment of cancer” (Universitätsklinikum Hamburg-Eppendorf, priority 2008, dated 2010).

Legend:
Zelllinie H69 = assay: XTT cell proliferation (growth) test with H69 cells; format: cell-based; details: single agent (alleinige Gabe), Figuren 5a, 5b
OH1-Zellen = assay: XTT cell proliferation (growth) test with OH1 cells; details: single agent (alleinige Gabe), 1 µM to 0,001 µM, 72 h incubation, Figur 2
Zelllinie H82 = assay: XTT cell proliferation (growth) test with H82 cells; details: for Zellwachstum: single agent (alleinige Gabe), H82 cells, Figur 7

| Structure (SMILES) | Wachstum der Zellen (Zelllinie H69) | Wachstum der OH1-Zellen (OH1-Zellen) | inhibition at 5 µM (Zelllinie H82; Homo sapiens, NCI-H82, read-out: Hemmung der Proliferation) | Zellwachstum (Zelllinie H82) |
| --- | --- | --- | --- | --- |
| COc1ccc(CCN2CCC(Nc3nc4ccccc4n3Cc3ccc(F)cc3)CC2)cc1 [Astemizol, 1-[(4-Fluorphenyl)methyl]-N-[1-[2-(4-methoxyphenyl)ethyl]-4-piperidyl]benzoimidazol-2-amin] | nicht zu einer Verringerung des Wachstums | nicht zu einer Verringerung des Wachstums | 50% | kaum Auswirkungen auf das Zellwachstum |
| CC(C)c1c(C(=O)Nc2ccccc2)c(-c2ccccc2)c(-c2ccc(F)cc2)n1CC[C@@H](O)C[C@@H](O)CC(=O)O [Atorvastatin, (3R,5R)-7-[2-(4-Fluorphenyl)-5-isopropyl-3-phenyl-4-(phenylcarbamoyl)pyrrol-1-yl]-3,5-dihydroxyheptansäure] | nicht zu einer Verringerung des Wachstums | nicht zu einer Verringerung des Wachstums |  | kaum Auswirkungen auf das Zellwachstum |
| CCC(C)C(=O)OC1CC(C)C=C2C=CC(C)C(CCC3CC(O)CC(=O)O3)C21 (stereo not drawn) [Lovastatin, [8-[2-(4-hydroxy-6-oxo-oxan-2-yl)ethyl]-3,7-dimethyl-1,2,3,7,8,8a-hexahydronaphthalen-1-yl]-2-methylbutanoat] |  | nicht zu einer Verringerung des Wachstums |  | kaum Auswirkungen auf das Zellwachstum |
